Laboratory results published in patent US6399580B1, “Methods and compositions for stimulating tissue growth and epithelial moisturization” (The Regents of the University of California, priority 1994, dated 2002).
“And” between values parts separate entries of the source, which are not always exact repeats. Equal entries are not always repeated.

Key:
[1] = tested on: murine epidermis; test: Epidermal DNA synthesis, [3H]-thymidine incorporation in vivo; design: species or system mouse
Method: To assess the effects of a topical β-glucocerebrosidase inhibitor, conduritol-B-epoxide (CBE) in epidermal DNA synthesis two slightly different dosage protocols have been employed. In all cases, mice were treated topically with 20 μl to 40 μl of 250 nmol/μl CBE bid for 2-5 days on the right flank. On the last day, the mice were injected intraperitoneally with ^3H-thymidine (1 μCi/G body weight) diluted 1:10 in 100-200 μl isotonic NaCl. After one hour the mice were sacrificed. Whole skin was excised and subcutaneous fascia and fat were removed by scraped. Skin samples were placed dermis side downward onto 10 mM EDTA in phosphate buffered saline (PBS-CMF; pH 7.4) and incubated at 37° C. for 40 min. The skin was blotted dry with a tissue and epidermis removed by scraping with a surgical blade. The epidermis was minced into small pieces and placed in microcentrifuge vials. Samples were immediately snap frozen and stored in liquid nitrogen until immediately prior to preparation of the epidermal homogenates. 300 μl of 10 mM EDTA in PBS-CMF (pH 7.4) was added to all samples which then underwent tissue homogenization using Polytron (15 sec, ×2 on ice. Polytron tip was rinsed between each homogenization with 400 μl 10 mM EDTA in PBS-CMF. Rinses were combined with same original samples. Samples were sonicated twice for 10 sec on ice. 100 μl of 20% TCA was added and left for 10 min at 4° C. Samples were centrifuged at 2000×g at 4° C. for 5 min. The supernatant was discarded. 500 μl of 5% TCA was added and the samples were centrifuged at 2000×g at 4° C. for 5 min. The supernatant was discarded and this step was repeated again. The precipitate was resuspended in 1ml of 1N NaOH and vortexed. 400 μl or NaOH plus 400 μl of 1N HCl with 8ml Ecolume was used as a background blank. Vials were counted the following day.
We next determined whether the topical administration of structurally similar but less efficient β-glucosidase inhibitors would induce epidermal hyperproliferation. Animals were treated topically twice daily with either Conduritol-B-epoxide, Conduritol B (CB), or deoxynojirimycin (dNJM), each at 40 μl of 250 nmol/μl twice daily, as described in Example 10. After 24 hours, [^3H]-thymidine was injected intraperitoneally and incorporation of thymidine into DNA was determined (FIG. 26 A&B). […] This reduced activity is a result of the relative availability of these inhibitors to in vivo tissues.
Animals were treated as described in Example 10.
We next determined whether occlusion with a vapor-impermeable membrane would enhance the effects of a β-glucocerebrosidase inhibitor on epidermal DNA synthesis. […] After 24 hrs animals were injected with [^3H]-thymidine, and incorporation into DNA was determined (Proksch, et. al., J. Clin. Invest. 87:1668-1673, 1991).

[2] = tested on: acetone treated skin sites; test: Barrier recovery of acetone treated skin sites; type: in vivo, mouse; conditions: MUX 0.5 or 1.0 %(wt:vol) topical
[3] = tested on: cultured human keratinocytes; test: [3H]-thymidine incorporation and DNA content in cultured human keratinocytes; type: cell-based; conditions: for DNA content / thymidine incorporation: 24 hours of treatment, Cer 5 or 10 μM, FIG. 9
Method: To determine the ability of exogenous glucosylceramides (GlcCER) to stimulate epidermal proliferation, we applied various concentrations of GlcCER to cultural human keratinocytes (third passage). Keratinocytes were isolated from human neonatal foreskins by a modification of the method of Pittelkow, M. R. and Scott, R. E. ( (1986) Proc. Mayo Clin. 61:771-777) Cells were added to 100 mm plastic Petri dishes at a density of 1 to 2×10^4 cells/cm^2, and grown initially in 10mls of Keratinocyte Growth Medium (KGM) (Clonetics, San Diego, Calif.) with 0.07 mM calcium. The cultures were maintained at 35° C. under 5% CO2 in air, with medium changes performed three times weekly. After the cells reached 70%-80% confluence, they were switched to KGM medium containing 1.2 mM calcium, and harvested at one week post-confluence. GlcCER was added for the last 24 hours of culture and ^3H-thymidine (1 μCi/ml) was added one-to-three hours prior to harvesting of cells for measurement of DNA synthesis and DNA content. (Proksch, E., et al., J. Clin. Invest. 87:1668-1673 (1991).
Using the method described in Example 5, incorporation of [^3H]-thymidine and total DNA content were measured in cultured human keratinocytes (CHK) grown in serum-free keratinocyte growth medium (KGM) supplemented with 0.07 mM .calcium. Cultured cell were further supplemented as indicated, with ceramide (Cer; 5 or 10 μM), glucosylceramide (GlcCER; 1.25 or 2.5 μM), or a combination of ceramide and glucosylceramide (10 and 1.25 μM, respectively).
(§1) CHK cells were grown in serum-free KGM supplemented both with 0.07 mM calcium and 10 μM ceramide (CER). Increasing concentrations of glucosylceramide were added (2.5 to 10 μM), and both [^3H]-thymidine (1 μCi/ml) and [^14C]-leucine (1 μCi/ml) incorporation assays were performed.
CHK cells were grown (as in Example 6)in serum-free KGM (0.07 mM calcium) and supplemented with increasing concentrations of ceramide (CER) alone (dark bars), glucosylceramide (GlcCer) alone (back row), or the combination of ceramide (10 μM) with increasing glucosylceramide (front row). […] Glucosylceramide alone again stimulated thymidine incorporation (>20%) at low concentrations (1.25 and 2.5 μM).
CHK cells were grown (as in Example 6) in serum-free KGM ([…]) supplemented with glucosylceramide (GlcCER) alone, or in combination with the β-glucocerebrosidase-inhibitor, CBE (3 or 10 μM) (FIG. 12). Incorporation of [^3H]-thymidine was measured at 24 hours following supplementation, and values are reported as percent of unsupplemented controls (mean ±S.D.; n>6). […] A low CBE concentration (3 μM) was ineffective.

[4] = tested on: CHK cells; test: [14C]-leucine incorporation in CHK cells; type: cell-based, human; conditions: GlcCER 2.5 and 5.0 μM with 10 μM ceramide; FIG. 10
Method: as §1

[5] = topical 40 μl of 250 nmol/μl twice daily, after 24 hours
[6] = direct application of lipid alone, treated as in Example 10, FIG. 26B
[7] = GlcCER 1.25 μM, 24 hours, NHK cells, n=6±S.E.

For `O[C@H]1[C@H](O)[C@@H](O)C=C[C@@H]1O` [CB, Conduritol B], the “epidermal DNA synthesis ([3H]-thymidine incorporation)” value [1, 5] was “Neither CB or dNJM at this concentration induced an increase in DNA synthesis”.

`Cc1cc(=O)oc2cc(O[C@@H]3OC[C@@H](O)[C@H](O)[C@H]3O)ccc12` [MUX, 4-methylumbelliferyl xyloside] was tested, and the barrier-disrupting effect [2] was “comparable to the two conduritol is compounds (BrCBE and CBE)” and the barrier recovery ([2]; at 2, 4 and 6 hours) was “delayed barrier recovery”.

For `OC[C@H]1NC[C@H](O)[C@@H](O)[C@@H]1O` [dNJM, deoxynojirimycin], the “epidermal DNA synthesis ([3H]-thymidine incorporation)” value [1, 5] was “Neither CB or dNJM at this concentration induced an increase in DNA synthesis”.

ceramide was tested, and the DNA content ([3]; GlcCER 1.25 μM) was “corresponding decrease in DNA content”, the thymidine incorporation ([3]; GlcCER 1.25 μM) was “inhibited thymidine incorporation” and the “[3H]-thymidine incorporation, of control” value ([3]; ceramide alone 10 μM, FIG. 11) was 35 % of control. For the same compound, the “inhibition of [3H]-thymidine incorporation” value ([3]; ceramide alone 10 μM, FIG. 11) was “approximately 65%” and the “epidermal DNA synthesis ([3H]-thymidine incorporation)” value [1, 6] was “Neither GalCER nor ceramide (CER) alone at this concentration (c.f. structures in FIGS. 4 and 6) induced an increase”.

With galactosylceramide [GalCER] the “epidermal DNA synthesis ([3H]-thymidine incorporation)” value [1, 6] was “Neither GalCER nor ceramide (CER) alone at this concentration (c.f. structures in FIGS. 4 and 6) induced an increase”.

For glucosylceramide [GlcCER], the “keratinocyte proliferation, further increase” value ([3]; 5 μM) was “No further increase”, the DNA content ([3]; GlcCER 1.25 μM) was “increased” and the thymidine incorporation ([3]; GlcCER 1.25 μM) was “increased”. For the same compound, the “thymidine incorporation, increase over ceramide alone” value ([3]; GlcCER 1.25 μM co-administered with ceramide 10 μM, 24 hours) was “approximately 2 fold”, the “DNA Content (% of Control)” value [3, 7] was 124 ± 2 % of Control and 111 ± 6 % of Control and the “^3H]-Thym. Incorporation (% of control)” value [3, 7] was 118 ± 0.5 % of control and 117 ± 2.0 % of control. The “override of the ceramide effect on thymidine incorporation” value ([3]; GlcCER 10 μM with 10 μM ceramide) was “did not override the ceramide effect”, the “thymidine incorporation relative to ceramide-containing control” value ([3]; GlcCER 2.5 and 5.0 μM with 10 μM ceramide, FIG. 10) was “stimulated” and the “concentration of maximum effect on keratinocyte proliferation” value ([3]; cultured human keratinocytes, 24 hours) was 1.25 µM. For the same compound, the “inhibitory effect of ceramide on thymidine incorporation” value ([3]; glucosylceramide 1.25 μM coadministered with ceramide 10 μM) was “reversed”, the “stimulation of thymidine incorporation” value ([3]; glucosylceramide alone, 1.25 and 2.5 μM) was > 20% and the proliferation rates ([3]; higher concentrations of GlcCER (above 1.25 and 2.5 μM)) was “decreased”. For the same compound, the leucine incorporation [4] was “not altered”, the “epidermal DNA synthesis, combination of GlcCER with CBE” value ([1]; FIG. 26B) was “additive effect” and the “epidermal DNA synthesis ([3H]-thymidine incorporation)” value [1, 6] was “significant increase”.
